Test results: PubChem BioAssay (NCI)
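In this assay, cells in 96-well plates receive the compound at five concentrations for 48 hours. Endpoints are linearly interpolated between the surrounding concentrations. GI50 = concentration required for 50% inhibition of growth. TGI: total growth inhibition.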

Legend:
Test in all cases: growth of human tumour cells (NCI), 48 h
SF-539 CNS = system: SF-539 CNS
NCI/ADR-RES ovarian = system: NCI/ADR-RES ovarian
BT-549 breast = system: BT-549 breast
SK-OV-3 ovarian = system: SK-OV-3 ovarian
NCI-H460 lung = system: NCI-H460 lung
HS 578T breast = system: HS 578T breast
MDA-MB-435 = system: MDA-MB-435
PC-3 prostate = system: PC-3 prostate
OVCAR-4 ovarian = system: OVCAR-4 ovarian
UACC-62 melanoma = system: UACC-62 melanoma

Compound	TGI (SF-539 CNS) [µM]	TGI (NCI/ADR-RES ovarian) [µM]	TGI (BT-549 breast) [µM]	TGI (SK-OV-3 ovarian) [µM]	TGI (NCI-H460 lung) [µM]	TGI (HS 578T breast) [µM]	TGI (MDA-MB-435) [µM]	TGI (PC-3 prostate) [µM]	TGI (OVCAR-4 ovarian) [µM]	TGI (UACC-62 melanoma) [µM]	GI50 (UACC-62 melanoma) [µM]	GI50 (SF-539 CNS) [µM]	GI50 (NCI/ADR-RES ovarian) [µM]	GI50 (BT-549 breast) [µM]	GI50 (SK-OV-3 ovarian) [µM]	GI50 (NCI-H460 lung) [µM]	GI50 (HS 578T breast) [µM]	GI50 (MDA-MB-435) [µM]	GI50 (PC-3 prostate) [µM]	GI50 (OVCAR-4 ovarian) [µM]
Cc1cc2c(O)c(c1)CN(CC(=O)O)Cc1cc(C)cc(c1O)CN(CC(=O)O)Cc1cc(C)cc(c1O)CN(CC(=O)O)C2	> 100	> 100	> 100	> 100	> 100	> 100	> 100	> 100	> 100	> 100										
Cc1ccc2c(c1)-c1c(C#N)c(N)nc(-c3ccc(Cl)cc3)c1CCS2(=O)=O	37.1	98.2	> 100	> 100	> 100	64.6	> 79.2	> 100	> 100	> 100										
N#CC1(O)CCCCCCCCCCC1	> 100	> 100	> 100	> 100	> 100	> 100	> 100	> 100	> 100	> 100										
CN(C)CCCNC(=O)c1cc(NC(=O)c2cc(NC(=O)CCCn3c4ccccc4c4ccccc43)cn2C)cn1C	62.6	53.2	46.7	30.8	> 94	49.7	> 61.7	> 56.3	35.5	23	7.28									
O=c1nc2c(c(-c3ccc(Br)cc3)[nH]1)COC/C2=C\c1ccc(Br)cc1	> 50	> 50	> 50	> 50	> 50	> 50	> 50	> 50	> 50	> 50										
CN(C)CC1CCC/C(=C\c2ccc(OC(=O)c3ccc(Cl)cc3)cc2)C1=O (stereo unspecified)	5.41	4.99	7.55	34.6	17.5	10.3	4.01	18.4	8.94	13.4										
O=C(O)c1cccc2cccc(-c3cccc4cccc(C(=O)O)c34)c12	> 100	> 100	> 100	> 100	> 100	> 100	> 100	> 100	> 100	> 100										
CCC(O)(Cc1ccc(OC)cc1)c1ccc(OC)cc1 (stereo unspecified)	> 100	> 100	> 100	> 100	> 100	> 100	> 100	> 100	> 100	> 100										
CCC(CO)Nc1nc(NCc2ccccc2)c2ncn(C(C)C)c2n1 (stereo unspecified)	26.4	42.3	> 55.3	> 100	> 100	27.3	> 68.1	37.1	> 58.1	47										
C=C1OC(c2ccccc2NC)=NC12CCCCC2	> 100	> 100	> 100	> 100	> 100	> 100	> 100	> 100	> 100	> 100										
CC(=O)OCC1OC(n2c(-c3ccccc3)c(N=Nc3ccccc3)c(C)c(C#N)c2=S)C(OC(C)=O)C(OC(C)=O)C1OC(C)=O (stereo unspecified)	> 100	> 100	> 100	> 100	> 100	> 100	> 100	> 100	> 100	> 100										
CC[C@H](Nc1nc(C)nc(N)c1C#N)c1nc2cccc(NCc3ccc(C(=O)NO)cc3)c2c(=O)n1-c1ccccc1	3.02	4.69	4.56	3.13	3.78	8.36	3.74	4.04	14.6	3.17	1.55	1.59	1.99	1.93	1.65	1.79	2.45	1.93	1.47	2.74
CCCCC1=C(C(=O)N2CCOCC2)C2(OCCO2)C1=O	46.5	57.2	78.8	> 100	> 100	> 100	50.8	98.3	> 100	94.8										
COc1ccc(/C=c2\s/c(=C3/SC(=S)N(c4ccccc4)C3=O)n(-c3ccccc3)c2=O)cc1	> 100	> 100	> 100	45	> 100	74	> 100	> 100	> 100	> 100										
CCc1c(CNc2ccc(C(=O)NC(CC(=O)O)C(=O)O)cc2)ccc2nc(N)nc(N)c12 (stereo unspecified)	> 1000	> 1000	> 1000	> 1000	> 1000	> 1000	> 1000	> 1000	> 1000	> 1000		0.285		685	> 1000				< 0.01	869
COc1ccccc1C1Nn2c(nc3ccccc3c2=O)N1c1ccc(C)cc1 (stereo unspecified)	12.1	23.6	68.6	15.7	16.3	27.9	22.7	10.8	11.9	22.2										
CCCCSc1nsc(N(C(=O)c2ccccc2)C(=O)c2ccccc2)n1	64.3	> 100	92.1	> 100	76.9	89.7	> 100	> 100	> 100	60.1										
CCOc1ccc(Nc2nc(N)nc(N)c2N)cc1	46.3	> 100	76.6	> 100	98	45.7	65	> 100	> 100	> 100										
Cc1cc(S(=O)(=O)Nc2n[nH]c(-c3ccccn3)n2)c(S)cc1Cl	54.3	35.3	79.6	37.3	27.7	86.6	70.6	> 100	65.5	34.8										
c1ccc2c(c1)Sc1nccc3ccnc-2c13	> 100	> 100	> 100	> 100	33.2	65.3	> 100	> 100	> 100	> 100										
Cc1cc(S(=O)(=O)/N=C(/C(=C=[N-])C#N)[n+]2ccc(N(C)C)cc2)c(SCC(=O)O)cc1Cl	> 100	> 100	> 100	> 100	> 100	> 100	> 100	> 100	> 100	> 100										
Cc1cc(C)c(S(=O)(=O)N(CCCN)OCCCON(CCCN)S(=O)(=O)c2c(C)cc(C)cc2C)c(C)c1	3.77	36.4	8.64	3.58	3.18	3.16	4.21	3.45	5.22	6.09										
COc1cc(C(=O)Oc2ccc3c(c2)OCO3)cc(OC)c1OC	> 100	> 100	> 100	> 100	> 100	> 100	> 100	> 100	> 100	> 100										
C[C@]12CCC(=O)[C@@H](CCC3=CC(=O)C=CC3=O)[C@@H]1CCC2=O	35.7	> 100	30.2	63.9	31.4	43.6	> 56.2	27.5	53.2	44.1										
S=C(N/N=C\C(=N/NC(=S)N1CCCCC1)c1ccccc1)N1CCCCC1	6.7	7.87	3.57	3.37	4.86	5.23	3.68	4.06	3.43	4.1										
CCn1c2ccc(C(=O)CCCN3CCCCC3)cc2c2cc(C(=O)CCCN3CCCCC3)ccc21	3.37	13.1	35	13.4	3.12	7.06	3.3	12.6	5.65	38.8										
COc1cc(S(=O)(=O)Nc2ccc(C(=O)/C=C/c3ccc(O)cc3)cc2)ccc1F	> 100	> 100	> 100	> 100	> 100	> 100	> 100	> 100	> 100	> 100	57.6	> 100	> 100	> 100	> 100	> 100	> 100	> 100	> 100	> 100
COc1cccc2c1C(=O)c1c(O)c3c(c(O)c1C2=O)C[C@H](O)C[C@@H]3OC1CC(N)C(O)C(C)O1 (stereo partly specified)	11.2	62.3	16	14.8	13.7	5.97	8.05	12	21.4	1.82										
